Here are results for eight compounds from publication PMC5007552, “The hVps34‐SGK3 pathway alleviates sustained PI3K/Akt inhibition by stimulating mTORC1 and tumour growth” (The EMBO Journal, 2016).

Assay [1] has as its target T1, SGK3 (Homo sapiens, UniProt Q96BR1).
T1 sequence (Q96BR1 1-496): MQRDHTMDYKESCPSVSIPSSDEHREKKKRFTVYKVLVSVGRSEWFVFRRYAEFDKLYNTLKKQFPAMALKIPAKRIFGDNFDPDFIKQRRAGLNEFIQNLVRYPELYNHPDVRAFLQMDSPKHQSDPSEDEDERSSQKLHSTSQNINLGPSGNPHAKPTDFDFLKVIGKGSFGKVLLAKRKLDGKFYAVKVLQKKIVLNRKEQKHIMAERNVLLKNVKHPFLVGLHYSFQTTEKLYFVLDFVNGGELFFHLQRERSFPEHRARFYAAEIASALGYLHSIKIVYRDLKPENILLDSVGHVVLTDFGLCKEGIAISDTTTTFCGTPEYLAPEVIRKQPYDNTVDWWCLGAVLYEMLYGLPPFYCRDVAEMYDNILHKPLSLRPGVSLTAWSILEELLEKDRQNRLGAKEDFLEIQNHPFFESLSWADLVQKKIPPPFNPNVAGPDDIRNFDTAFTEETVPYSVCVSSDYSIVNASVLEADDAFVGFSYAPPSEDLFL
In words: Immunoprecipitated endogenous SGK3 kinase activity (Crosstide) and SGK3 phosphorylation from treated cells. The note with it: for SGK3 hydrophobic motif and T-loop phosphorylation and SGK3 kinase activity: ZR-75-1, 0.1 μM, with or without 5 days 1 μM MK-2206; for SGK3 hydrophobic motif and T-loop phosphorylation and SGK3 kinase activity / basal SGK3 activity and phosphorylation: 1 h; for elevated SGK3 kinase activity, T-loop and hydrophobic motif phosphorylation induced by prolonged Class I PI3K or Akt inhibitor treatment: ZR-75-1, 5 days PI3K/Akt inhibitor, then 1 μM VPS34-IN1 or 0.3 μM SAR405 for 1 h; for basal SGK3 activity and phosphorylation: ZR-75-1 in serum, 1 μM VPS34-IN1 or 0.3 μM SAR405. Also noted: we immunoprecipitated endogenous SGK3 and assessed protein kinase activity; endogenous in cells; host or cells: ZR-75-1. The format is cell-based. As for the experimental part: Briefly, SGK3, Akt and S6K1 were immunoprecipitated from 1 mg ZR‐75‐1 cell lysate. Immunoprecipitates were washed in sequence with lysis buffer containing high salt concentration (500 mM NaCl), lysis buffer and Buffer A (50 mM Tris pH 7.5, 0.1 mM EGTA). Kinase activity was assessed by measuring [γ‐^32P]ATP incorporation into Crosstide substrate peptide [[…]]. The reactions were carried in 40 μl total volume containing 0.1 mM [γ‐^32P]ATP (400–1,000 cpm/pmol), 10 mM magnesium acetate and 30 μM Crosstide peptide. Reactions were terminated by adding 10 μl 0.1 M EDTA and spotting 40 μl of the resulting reaction mix on P81 paper, which were immediately immersed into 50 mM orthophosphoric acid. Papers were washed at least five times in 50 mM orthophosphoric acid, rinsed in acetone and air‐dried. Radioactivity was quantified by Cerenkov counting. One unit of enzyme activity was defined as amount of enzyme that catalyses incorporation of 1 nmol of [γ‐^32P]ATP into the substrate over 1 min.

Assay [2] concerns NDRG1 phosphorylation in ZR-75-1 cells. In words: Immunoblot of NDRG1 (Thr346) phosphorylation in breast cancer cells. Type of assay: cell-based, human. Particulars: for phosphorylation of PRAS40 (Thr246) and NDRG1 (Thr346): 1 μM, 1 h, ZR-75-1, CAMA-1 (and T47D for PI3K inhibitors); for concentration reducing NDRG1 phosphorylation to basal levels: ZR-75-1 pre-treated with 1 μM MK-2206 for 5 days, hVps34 inhibitor 1 h. As for the experimental part: Cell lysates were subjected to immunoblot analysis with the indicated antibodies. • ZR‐75‐1 cells cultured in serum in the absence of Akt inhibitor were treated for 1 h with the indicated concentrations of VPS34‐IN1. […] One hour prior to lysis, the cells were incubated in the presence or absence of 1 μM VPS34‐IN1. SGK3 was immunoprecipitated from lysates and subjected to in vitro kinase assay by measuring phosphorylation of the Crosstide substrate peptide in the presence of 0.1 mM [γ‐^32P]ATP in a 30 min 30°C reaction (upper panel). Kinase reactions are presented as means ± SD for triplicate reaction. Immunoprecipitates (IP) and lysates were analysed by immunoblot with the indicated antibodies. […] SGK3 was immunoprecipitated from the lysates and subjected to in vitro kinase assay as in (C). Kinase reactions are presented as means ± SD for triplicate reaction. Immunoprecipitates (IP) and lysates (lower panel) were also subjected to immunoblot analysis with the indicated antibodies. • ZR‐75‐1 cells were cultured in the absence or presence of 1 μM MK‐2206 for 5 days. Cells were then treated in the absence or presence of 0.1 μM AZD8055 or 0.1 μM rapamycin for 1 h. SGK3 was immunoprecipitated and subjected to in vitro kinase assay as in (C). Kinase reactions are presented as means ± SD for triplicate reaction. The immunoprecipitates (IP) and lysates were analysed with the indicated antibodies.
One hour prior to lysis, the cells were incubated in the presence of absence of 0.3 μM SAR405. SGK3 was immunoprecipitated from lysates and subjected to in vitro kinase assay by measuring phosphorylation of the Crosstide substrate peptide in the presence of 0.1 mM [γ‐^32P]ATP in a 30 min 30°C reaction (upper panel). Kinase reactions are presented as means ± SD for triplicate reaction. Immunoprecipitates (IP) and lysates were also analysed by immunoblot with the indicated antibodies.
(§1) The result for each kinase is presented as a mean kinase activity of the reaction taken in triplicate relative to a control reaction where the inhibitors were omitted. […] SGK3 was immunoprecipitated from cell lysates and subjected to in vitro kinase assay by measuring phosphorylation of the Crosstide substrate peptide in the presence of 0.1 mM [γ‐^32P]ATP in a 30 min 30°C reaction (upper panel). Kinase reactions are presented as means ± SD for triplicate reaction.
(§2) HEK293 cells were purchased from the American Tissue Culture Collection (ATCC). Cells were cultured in RPMI or DMEM media supplemented with 10% (v/v) foetal bovine serum, 2 mM L‐glutamine, 100 U/ml penicillin and 0.1 mg/ml streptomycin. Inhibitor treatments were carried out as described in figure legends. During 5 days inhibitor treatments, the media was changed after 72‐h intervals. The cells were lysed in buffer containing 50 mM Tris–HCl (pH 7.5), 150 mM NaCl, 1 mM EDTA, 1 mM EGTA, 1 mM sodium orthovanadate, 10 mM sodium glycerophosphate, 10 mM sodium pyrophosphate, 0.27 M sucrose, 0.1% (v/v) 2‐mercaptoethanol, 1 mM benzamidine and 0.1 mM PMSF. Lysates were clarified by centrifugation at 16,000 g for 10 min at 4°C. Protein concentration was calculated using Bradford assay (Thermo Scientific). Immunoblotting and immunoprecipitation were performed using standard procedures. The signal was developed using ECL Western Blotting Detection Kit (Amersham) on Amersham Hyperfilm ECL film (Amersham).
For orientation: Immunoblotting shows a protein as a band on a membrane.

Assay [3] deals with MLK1 (Homo sapiens, UniProt P80192). As to the kind of experiment: IC50 on recombinant MLK1. The format is biochemical. The note with it: Fig 5B / Appendix Fig S1B, recombinant kinase, unit inferred. As for the experimental part: as §1
(§3) Appendix Figure S1. […] (A) Chemical struc tures of
(§4) Sano/f_i-14g, -14i and -14n compounds. (B) IC50 values of inhibitors on indicated recombinant k inases. […]

In assay [4] the target is T1, SGK3. As to the kind of experiment: IC50 on recombinant SGK3. Type of assay: biochemical. Particulars: Fig 5B / Appendix Fig S1B, recombinant kinase, unit inferred. The procedure: as §1, §3, §4
The target in assay [5] is MLK3 (Homo sapiens, UniProt Q16584). As to the kind of experiment: IC50 on recombinant MLK3. Type of assay: biochemical. The note with it: Fig 5B / Appendix Fig S1B, recombinant kinase, unit inferred. The procedure: as §1, §3, §4
Assay [6] has as its target S6K1 (Homo sapiens, UniProt P23443). As to the kind of experiment: IC50 on recombinant S6K1 (p70S6K). Type of assay: biochemical. The note with it: Fig 5B / Appendix Fig S1B, recombinant kinase, unit inferred. As for the experimental part:
as §1, §3, §4

The target of assay [7] is PKBa (Homo sapiens, UniProt P31749). In words: IC50 on recombinant PKBa (Akt1). The format is biochemical. Particulars: Fig 5B / Appendix Fig S1B, recombinant kinase, unit inferred. As for the experimental part: as §1, §3, §4
The subject of assay [8] is ZR-75-1 cells. As to the kind of experiment: Immunoblot of Akt/mTORC1 pathway markers (Akt, PRAS40, TSC2, S6K1, Rictor, S6, 4EBP1) in ZR-75-1 cells. The format is cell-based, human. The note with it: for Akt phosphorylation and PRAS40 phosphorylation: ZR-75-1 in serum, hVps34 inhibitor 1 h. The procedure: Kinase reactions are presented as means ± SD for triplicate reaction. Immunoprecipitates (IP) were also analysed by immunoblot with the indicated antibodies. • SGK3 was knocked down in ZR‐75‐1 cells by using shRNA probe B and compared to a control shRNA probe, named sh scramble. After infection, the cells were kept for 2 days in puromycin selection media and then seeded for the experiment. The cells were treated with 1 μM MK‐2206 for 1 h or 5 days. The cell lysates were subjected to immunoblot analysis with the indicated antibodies.
The cell lysates were analysed by immunoblot using the antibody against phosphorylated Akt phosphorylation consensus motif (RxRxxpS/pT).
as §2

Assay [9] has as its system breast cancer cells that express high levels of SGK1. In words: NDRG1 phosphorylation in breast cancer cells that express high levels of SGK1. The format is cell-based. Particulars: data not shown.

Usually IC50 stands for the concentration at which inhibition is half-maximal.

Chain of MLK3 (Q16584 whole entry, species assumed): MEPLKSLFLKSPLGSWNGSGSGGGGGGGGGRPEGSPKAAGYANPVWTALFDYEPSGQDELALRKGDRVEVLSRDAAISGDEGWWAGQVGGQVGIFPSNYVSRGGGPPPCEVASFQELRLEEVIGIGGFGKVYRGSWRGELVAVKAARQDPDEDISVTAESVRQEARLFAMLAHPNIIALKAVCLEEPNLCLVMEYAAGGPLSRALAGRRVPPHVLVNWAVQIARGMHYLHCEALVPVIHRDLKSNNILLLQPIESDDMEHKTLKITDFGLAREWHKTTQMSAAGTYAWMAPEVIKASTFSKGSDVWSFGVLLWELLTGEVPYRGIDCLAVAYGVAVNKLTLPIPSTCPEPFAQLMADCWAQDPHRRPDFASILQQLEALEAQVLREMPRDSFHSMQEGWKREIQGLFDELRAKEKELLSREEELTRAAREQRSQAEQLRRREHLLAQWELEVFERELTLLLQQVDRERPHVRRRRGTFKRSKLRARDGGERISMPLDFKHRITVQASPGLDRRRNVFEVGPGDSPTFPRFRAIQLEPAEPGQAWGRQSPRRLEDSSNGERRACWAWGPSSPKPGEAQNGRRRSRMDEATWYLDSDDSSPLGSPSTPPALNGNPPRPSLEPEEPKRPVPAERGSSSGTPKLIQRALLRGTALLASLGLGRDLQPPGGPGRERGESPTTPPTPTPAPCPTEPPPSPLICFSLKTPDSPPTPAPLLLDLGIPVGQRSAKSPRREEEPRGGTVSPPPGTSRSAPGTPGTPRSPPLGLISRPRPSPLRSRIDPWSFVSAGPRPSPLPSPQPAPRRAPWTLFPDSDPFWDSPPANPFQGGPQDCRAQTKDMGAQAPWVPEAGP
Chain of MLK1 (P80192 whole entry, species assumed): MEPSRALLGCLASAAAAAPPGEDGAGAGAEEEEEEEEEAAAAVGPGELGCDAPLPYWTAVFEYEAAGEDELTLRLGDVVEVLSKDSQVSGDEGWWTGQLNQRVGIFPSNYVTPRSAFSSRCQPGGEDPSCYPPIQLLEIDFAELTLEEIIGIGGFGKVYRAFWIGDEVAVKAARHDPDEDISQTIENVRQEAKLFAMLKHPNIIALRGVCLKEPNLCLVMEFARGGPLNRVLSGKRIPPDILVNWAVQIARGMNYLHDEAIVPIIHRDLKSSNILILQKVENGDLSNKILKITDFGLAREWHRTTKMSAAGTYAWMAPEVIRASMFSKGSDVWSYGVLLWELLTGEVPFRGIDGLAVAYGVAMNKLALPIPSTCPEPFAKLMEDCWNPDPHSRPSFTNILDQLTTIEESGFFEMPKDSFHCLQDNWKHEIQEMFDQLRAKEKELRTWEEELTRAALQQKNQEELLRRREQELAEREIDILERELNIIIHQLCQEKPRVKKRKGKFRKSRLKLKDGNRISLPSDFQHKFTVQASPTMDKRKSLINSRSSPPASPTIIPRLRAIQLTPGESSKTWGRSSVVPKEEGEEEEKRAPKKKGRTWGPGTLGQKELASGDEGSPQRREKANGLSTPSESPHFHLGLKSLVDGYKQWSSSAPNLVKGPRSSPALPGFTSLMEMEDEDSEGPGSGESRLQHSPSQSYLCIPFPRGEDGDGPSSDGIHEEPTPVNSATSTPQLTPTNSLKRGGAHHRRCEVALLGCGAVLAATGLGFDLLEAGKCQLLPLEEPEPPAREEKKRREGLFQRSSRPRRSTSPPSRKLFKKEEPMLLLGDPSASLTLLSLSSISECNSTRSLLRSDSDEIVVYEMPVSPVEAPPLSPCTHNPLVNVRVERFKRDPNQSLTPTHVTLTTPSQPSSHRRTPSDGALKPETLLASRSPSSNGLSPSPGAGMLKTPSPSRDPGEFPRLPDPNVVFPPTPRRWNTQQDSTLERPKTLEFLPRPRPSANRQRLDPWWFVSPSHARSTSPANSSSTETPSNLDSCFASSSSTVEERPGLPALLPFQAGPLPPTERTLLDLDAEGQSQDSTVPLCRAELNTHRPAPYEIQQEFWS
Chain of PKBa (P31749 whole entry): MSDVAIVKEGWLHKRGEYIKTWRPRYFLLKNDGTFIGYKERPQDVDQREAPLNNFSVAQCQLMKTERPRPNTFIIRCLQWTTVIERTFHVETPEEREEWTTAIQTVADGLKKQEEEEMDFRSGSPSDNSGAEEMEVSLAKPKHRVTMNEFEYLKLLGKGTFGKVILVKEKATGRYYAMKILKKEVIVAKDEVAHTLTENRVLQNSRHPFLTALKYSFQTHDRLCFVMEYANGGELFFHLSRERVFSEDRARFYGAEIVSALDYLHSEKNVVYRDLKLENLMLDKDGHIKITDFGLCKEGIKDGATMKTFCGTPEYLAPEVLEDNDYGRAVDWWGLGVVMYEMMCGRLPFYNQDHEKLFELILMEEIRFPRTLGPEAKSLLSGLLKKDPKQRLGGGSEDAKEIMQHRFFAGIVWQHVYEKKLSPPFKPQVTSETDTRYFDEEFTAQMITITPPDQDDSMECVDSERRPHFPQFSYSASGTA
Chain of S6K1 (P23443 whole entry): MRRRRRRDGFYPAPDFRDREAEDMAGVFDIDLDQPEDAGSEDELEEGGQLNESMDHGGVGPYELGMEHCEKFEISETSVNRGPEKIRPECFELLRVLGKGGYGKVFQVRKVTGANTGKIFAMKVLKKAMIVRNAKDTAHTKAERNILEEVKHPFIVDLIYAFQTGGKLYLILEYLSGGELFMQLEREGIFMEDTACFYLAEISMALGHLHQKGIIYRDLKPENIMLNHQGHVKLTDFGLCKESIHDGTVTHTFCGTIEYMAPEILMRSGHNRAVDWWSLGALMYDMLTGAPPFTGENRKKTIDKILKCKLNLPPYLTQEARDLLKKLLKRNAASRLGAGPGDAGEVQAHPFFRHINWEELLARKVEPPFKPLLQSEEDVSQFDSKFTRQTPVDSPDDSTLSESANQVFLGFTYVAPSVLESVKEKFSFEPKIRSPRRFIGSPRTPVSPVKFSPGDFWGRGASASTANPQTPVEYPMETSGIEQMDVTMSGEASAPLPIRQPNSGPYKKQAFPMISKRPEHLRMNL

`CO[C@H]1C[C@@H]2CC[C@@H](C)[C@@](O)(O2)C(=O)C(=O)N2CCCC[C@H]2C(=O)O[C@H]([C@H](C)C[C@@H]2CC[C@@H](O)[C@H](OC)C2)CC(=O)[C@H](C)/C=C(\C)[C@@H](O)[C@@H](OC)C(=O)[C@H](C)C[C@H](C)/C=C/C=C/C=C/1C` [rapamycin]: the “SGK3 hydrophobic motif and T-loop phosphorylation and SGK3 kinase activity” value in assay [1] is “had no effect”.
As for `Nc1cc(C(F)(F)F)c(-c2cc(N3CCOCC3)nc(N3CCOCC3)n2)cn1` [BKM120], the “phosphorylation of PRAS40 (Thr246) and NDRG1 (Thr346)” value in assay [2] is listed as “markedly suppressed”.
For `Nc1[nH]nc2nc(-c3ccc(NS(=O)(=O)c4cc(Cl)ccc4F)cc3)cnc12` [14n], the half-maximal inhibitory concentration (IC50) in assay [3] is 169 nM; in assay [4] it was 13 nM; in assay [5], 94 nM; in assay [6], 76 nM; in assay [7] it was over 10000 nM.
In the case of `C[C@@H]1COCCN1c1cc(=O)n2c(n1)N(Cc1cncc(Cl)c1)[C@H](C(F)(F)F)CC2` [SAR405], in assay [8], the “Akt phosphorylation and PRAS40 phosphorylation” value was “neither compound suppressed”. Further, in assay [1], the “elevated SGK3 kinase activity, T-loop and hydrophobic motif phosphorylation induced by prolonged Class I PI3K or Akt inhibitor treatment” value was “suppressed”; the “basal SGK3 activity and phosphorylation” value was “to below control levels”. Also, the “concentration reducing NDRG1 phosphorylation to basal levels” value in [2] was found to be 0.3 µM.
In the case of `CCc1c(C(=O)NNC(=O)C(O)c2cc(F)cc(F)c2)ccc(O)c1C` (stereo not shown) [EMD638683], the “dose required to observe marginal reduction in NDRG1 phosphorylation” value in [9] amounted to 100 µM.
In the case of `CC(C)(O)CNc1ncc(-c2ccnc(Nc3ccnc(Cl)c3)n2)c(CC2CC2)n1` [VPS34-IN1], in assay [8] (ZR-75-1, 1 μM VPS34-IN1 alone, 1 h), the “TSC2 or mTORC1 substrate phosphorylation” value is given as “did not have an effect”. The “Akt phosphorylation and PRAS40 phosphorylation” value in assay [8] was “neither compound suppressed”. Besides, in assay [1], the “elevated SGK3 kinase activity, T-loop and hydrophobic motif phosphorylation induced by prolonged Class I PI3K or Akt inhibitor treatment” value is “suppressed”; the “basal SGK3 activity and phosphorylation” value was “to below control levels”. For the same compound, the “concentration reducing NDRG1 phosphorylation to basal levels” value in assay [2] worked out at 1 µM.
As for `COc1ccc(-c2ccc3c(N4CCOC[C@@H]4C)nc(N4CCOC[C@@H]4C)nc3n2)cc1CO` [AZD8055], the “SGK3 hydrophobic motif and T-loop phosphorylation and SGK3 kinase activity” value in assay [1] is listed as “suppressed”.
`CS(=O)(=O)N1CCN(Cc2cc3nc(-c4cccc5[nH]ncc45)nc(N4CCOCC4)c3s2)CC1` [GDC0941]: in assay [2], the “phosphorylation of PRAS40 (Thr246) and NDRG1 (Thr346)” value is given as “markedly suppressed”.
